Laboratory results taken from patent US9168275B2 (priority 2000, dated 2015).

Columns and labels:
tetanus toxin = tetanus toxin (Clostridium tetani, UniProt P04958); conditions: cited from earlier work
clostridia = conditions: cited from earlier work
[1] = test system: person with chronic diarrhea and autism; assay type: in vivo, human
Experimental: Diarrhea began after three 10 day courses of broad spectrum antimicrobials prescribed over a six week period for “chronic otitis media.” There was no blood or pus in the stool nor associated constitutional symptoms. There was profound behavioral and developmental deterioration, along with emergence of severe autistic features.
A 12 week therapeutic trial of oral vancomycin (125 mg QID) was begun with expanded observations by a pediatric neuropsychologist pre- and post-treatment. At baseline, the child was not on a special diet nor was […] taking any vitamin supplements. Three days after initiation of the vancomycin therapy, a hyperactivity pattern emerged which lasted for four days. […] became affectionate and relatively calm. […] promptly achieved toilet training and increased vocabulary. Follow-up behavioral observations after eight weeks of therapy noted an increase in on-task performance, compliance with parental requests, awareness of environmental surroundings, and persistence when engaging in positive activities. […] The child's educational therapies remained unchanged for both six months before and during the vancomycin trial. […] Though still improved over baseline, […] eventually lost most of the initial gains.

Bacteroides = conditions: cited from earlier work
[2] = in vivo, po; cited from earlier work
[3] = test system: children with regressive onset autism; conditions: in vivo

Sequence of tetanus toxin (P04958 whole entry, looked up): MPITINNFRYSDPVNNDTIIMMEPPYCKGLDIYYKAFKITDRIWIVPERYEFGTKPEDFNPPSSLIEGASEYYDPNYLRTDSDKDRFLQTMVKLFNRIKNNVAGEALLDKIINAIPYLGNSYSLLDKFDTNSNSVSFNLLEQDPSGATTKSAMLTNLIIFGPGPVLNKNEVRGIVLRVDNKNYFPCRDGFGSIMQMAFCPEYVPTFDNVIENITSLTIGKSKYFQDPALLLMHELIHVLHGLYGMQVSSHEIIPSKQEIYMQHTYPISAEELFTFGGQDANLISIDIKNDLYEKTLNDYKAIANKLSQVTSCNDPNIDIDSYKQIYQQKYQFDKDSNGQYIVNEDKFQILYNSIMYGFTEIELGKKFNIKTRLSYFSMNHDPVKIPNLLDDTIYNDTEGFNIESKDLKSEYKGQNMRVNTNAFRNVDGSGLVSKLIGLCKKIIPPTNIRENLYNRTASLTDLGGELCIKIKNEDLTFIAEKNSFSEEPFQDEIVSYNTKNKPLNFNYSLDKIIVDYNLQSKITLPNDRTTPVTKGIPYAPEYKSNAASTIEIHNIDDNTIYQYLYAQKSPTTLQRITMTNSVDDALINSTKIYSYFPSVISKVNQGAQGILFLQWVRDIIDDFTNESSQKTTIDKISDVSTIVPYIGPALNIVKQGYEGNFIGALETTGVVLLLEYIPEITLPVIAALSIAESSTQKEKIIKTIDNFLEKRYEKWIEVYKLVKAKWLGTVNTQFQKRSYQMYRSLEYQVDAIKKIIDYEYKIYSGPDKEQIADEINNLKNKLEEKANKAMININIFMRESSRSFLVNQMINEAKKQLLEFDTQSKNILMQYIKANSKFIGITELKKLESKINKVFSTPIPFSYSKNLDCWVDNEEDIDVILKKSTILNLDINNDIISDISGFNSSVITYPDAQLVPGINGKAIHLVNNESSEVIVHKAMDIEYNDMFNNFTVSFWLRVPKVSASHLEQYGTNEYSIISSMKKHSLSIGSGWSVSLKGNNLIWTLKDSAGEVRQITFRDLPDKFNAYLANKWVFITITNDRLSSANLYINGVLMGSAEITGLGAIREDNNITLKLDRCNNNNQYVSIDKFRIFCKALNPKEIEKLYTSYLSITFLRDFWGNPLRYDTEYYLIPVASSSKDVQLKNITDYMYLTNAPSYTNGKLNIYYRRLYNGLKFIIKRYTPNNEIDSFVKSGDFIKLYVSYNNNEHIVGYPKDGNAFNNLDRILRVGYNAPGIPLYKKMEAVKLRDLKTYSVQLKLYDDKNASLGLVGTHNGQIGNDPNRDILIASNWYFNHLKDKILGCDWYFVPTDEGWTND

Row | SMILES | Effect on tetanus toxin in vitro (tetanus toxin) | Activity against clostridia (clostridia) | Repetitive and self-stimulatory behaviors ([1]; after eight weeks of therapy) | Course shortly after discontinuation ([1]; after vancomycin discontinuation) | Clinical response ([1]; oral vancomycin 125 mg QID, 12 weeks) | Activity against Bacteroides (Bacteroides) | Concentration in the intestines [2] | Analog rating scale, improvement in behavior: Wilcoxon Signed Ranks Z [3] | Analog rating scale, improvement in behavior: p [3] | Analog rating scale, improvement in communication: Wilcoxon Signed Ranks Z [3] | Analog rating scale, improvement in communication: p [3] | Analog ratings at long-term follow-up [3] | Basic blood, stool and urine tests [3] | Brief (1-4 days) period of hyperactivity: children affected [3] | Day of marked lethargy: subjects affected [3] | Blinded assessment of coded, paired videotapes: possible deterioration ([3]; po)
1 | C[C@H](CS)C(=O)N1CCC[C@H]1C(=O)O [Captopril] | inactivates | – | – | – | – | – | – | – | – | – | – | – | – | – | – | –
2 | CC1(C)S[C@@H]2[C@H](NC(=O)[C@H](N)c3ccccc3)C(=O)N2[C@H]1C(=O)O [ampicillin] | – | active | – | – | – | – | – | – | – | – | – | – | – | – | – | –
3 | CN[C@H](CC(C)C)C(=O)N[C@H]1C(=O)N[C@@H](CC(N)=O)C(=O)N[C@H]2C(=O)N[C@H]3C(=O)N[C@H](C(=O)N[C@H](C(=O)O)c4cc(O)cc(O)c4-c4cc3ccc4O)[C@H](O)c3ccc(c(Cl)c3)Oc3cc2cc(c3O[C@@H]2O[C@H](CO)[C@@H](O)[C@H](O)[C@H]2O[C@H]2C[C@](C)(N)[C@H](O)[C@H](C)O2)Oc2ccc(cc2Cl)[C@H]1O [vancomycin] | – | effective | significant reduction | behavioral deterioration | rapid and dramatic clinical improvement | effective | high concentration | −2.9 | 0.003 | 2.9 | 0.003 | returned towards baseline | unremarkable | six | One | one
